Assay results reported in patent US20210052616A1, “ANTHRACYCLINE ENCAPSULATED WITH A POLYSACCHARIDE FOR USE IN THE TREATMENT OF TUMOURS” (NANOVELOS S.A, priority 2018, published 2021).
“Also recorded” adds a separate entry of the source.

Legend:
[1] = to limit side effects; cited from earlier work
HeLa cell line = assay: MTT cytotoxicity test, HeLa; format: cell-based; conditions: 24 h
Source text: (§1) In this test, […] present in the cells converts the soluble tetrazolium salt (3-4,5-dimethylthiazol-2-yl)-2,5-diphenyltetrazolium bromide) into a reduced form. The reaction yields water-insoluble purple crystalline formazan. The number of crystals formed depends on the enzyme activity so that it is directly proportional to the number of viable cells in the sample. Spectrophotometric measurement requires the use of an organic solvent to dissolve the crystals obtained (isopropanol). The change in colour intensity is measured by spectrophotometry at 570 nm wavelength. The test was performed for a number of dilutions (9) of nanoparticle solutions containing the tested anthracycline. The baseline concentration of nanoparticles for MTT tests was 2.5 mg of nanoparticles/ml. The results were compared to cytotoxicity results obtained for pure drugs with equimolar drug concentration (equal to the concentration encapsulated in nanoparticles). The study was also performed for drug-free nanoparticles (the carrier itself was obtained similarly to the nanoparticles with the drug). Cells not exposed to toxic substances were used as a control for toxicity studies.
(§2) After reaching 85-90% confluence, the cells were trypsinised using a 0.25% trypsin solution. The cells were then centrifuged (1200 rpm, 5 min.) and suspended in a culture medium suitable for a particular cell line. […] The cells were plated at a concentration of 1000 cells/100 μl of medium per culture well (96-well plates). The prepared plates were incubated (37° C./5% CO2/22 h to 26 h). Subsequently, the culture medium was replaced with a fresh one (100 μl) containing the appropriate concentration of the tested nanoparticles and set aside for 24 h (37° C./5% CO2). After the lapse of the test time, the medium was removed and replaced with 50 μl of an MTT reagent solution at a concentration of 1 mg/ml. The plate was incubated for 2 hours (37° C./5% CO2). Subsequently, the MTT solution was removed, and 100 μl of isopropanol was added. After shaking the plate on the shaker for 2 minutes, the results for 570 nm wavelength were read (reference value of 650 nm). The mean value of absorbance read OD570 of the cells not exposed to a toxic agent (control) should be above 0.7 [see literature item 206].
(§3) A decrease in the number of viable cells causes a decrease in metabolic activity in the sample. This reduction directly correlates with the amount of blue and purple formazan formed, monitored basing on the optical density at 570 nm. The following equation (C.1) is used to calculate viability reduction compared to control:
(§4) where: • OD570e is the mean value of the measured absorbance of the test samples; • OD570b is the mean value of the measured absorbance of the control.
(§5) The results obtained were statistically analysed using the Dixon Q test.

[2] = MTT cytotoxicity test, HeLa; format: cell-based; conditions: human, HeLa cells; for viability at 24 h, 125000 ng/ml NPs (pure drug equimolar): 1.25E+05 ng/ml NPs (pure drug equimolar); for viability at 24 h, 25000 ng/ml NPs (pure drug equimolar): 2.50E+04 ng/ml NPs (pure drug equimolar); for viability at 24 h, 50000 ng/ml NPs (pure drug equimolar): 5.00E+04 ng/ml NPs (pure drug equimolar)
Source text: as §1, §2, §3, §4, §5

OVCAR3 line cells = assay: Anti-tumour efficacy, tumour volume, OVCAR3 xenograft, 10 mg/kg bw every 3 days (Example 4); format: in vivo, mice
Source text: (§6) Following Example 3, mice were obtained constituting an ovarian tumour test model, which were divided into 3 groups.

internal organs [3] = assay: Macroscopic and histopathological examination of internal organs at necropsy (Example 3); format: in vivo, mice
[4] = 10 mg/kg bw every 3 days, following 3 administrations
Source text: as §6

internal organs [5] = conditions: microscopic images, dose of 10 mg/kg bw
Source text: as §6

mice = assay: Survival of mice during treatment (Example 3); format: in vivo; conditions: EPI 15 mg/kg bw; NPs-EPI 3.75 and […] bw, i.v. every second day
[6] = 1.25E+04 ng/ml NPs (pure drug equimolar)
[7] = 1.25E+06 ng/ml NPs (pure drug equimolar)
[8] = 2.50E+05 ng/ml NPs (pure drug equimolar)
[9] = 2.50E+06 ng/ml NPs (pure drug equimolar)
[10] = 5.00E+03 ng/ml NPs (pure drug equimolar)
[11] = 5.00E+05 ng/ml NPs (pure drug equimolar)
[12] = 10 mg/kg bw every 3 days, group average

COc1cccc2c1C(=O)c1c(O)c3c(c(O)c1C2=O)C[C@@](O)(C(C)=O)C[C@@H]3O[C@H]1C[C@H](N)[C@H](O)[C@H](C)O1 [Dau, daunorubicin]
maximum recommended cumulative dose [1]: 500 mg/m^2
Average viability (HeLa cell line; [6]): 2.851%
Average viability (HeLa cell line; [7]): 107.342%
Average viability (HeLa cell line; [8]): 7.579%
Average viability (HeLa cell line; [9]): 111.366%
Average viability (HeLa cell line; [10]): 2.054%
Average viability (HeLa cell line; [11]): 28.287%
viability at 24 h, 125000 ng/ml NPs (pure drug equimolar) [2]: 7.89%
viability at 24 h, 25000 ng/ml NPs (pure drug equimolar) [2]: 2.11%
viability at 24 h, 50000 ng/ml NPs (pure drug equimolar) [2]: 4.14%

COc1cccc2c1C(=O)c1c(O)c3c(c(O)c1C2=O)C[C@@](O)(C(=O)CO)C[C@@H]3O[C@H]1C[C@H](N)[C@@H](O)[C@H](C)O1 [Epi, epirubicin]
Average tumour volume (mm^3) Before necropsy (OVCAR3 line cells; 10 mg/kg bw every 3 days (group K), after 3 administrations): 124.45 ± 57.05 mm^3
Average tumour volume (mm^3) Before 1st administration (OVCAR3 line cells; [12]): 143.56 ± 9.22 mm^3
Average tumour volume (mm^3) Before 2nd administration (OVCAR3 line cells; [12]): 148.77 ± 41.82 mm^3
Average tumour volume (mm^3) Before 3rd administration (OVCAR3 line cells; [12]): 131.00 ± 42.96 mm^3
average increase of tumour volume (OVCAR3 line cells; 10 mg/kg bw, after the first dose): 3.63%
inflammation and changes of liver and spleen compared to the control group (internal organs [3]; OVCAR3 mice): severe inflammation and changes in the structure of the liver
Macroscopic evaluation of internal organs: Adrenal glands (internal organs [3]; mouse #5, 15 mg/kg bw): No visible changes
Macroscopic evaluation of internal organs: Bladder (internal organs [3]; mouse #5, 15 mg/kg bw): No visible changes
Macroscopic evaluation of internal organs: Brain (internal organs [3]; mouse #5, 15 mg/kg bw): No visible changes
Macroscopic evaluation of internal organs: Heart (internal organs [3]; mouse #5, 15 mg/kg bw): No visible changes
Macroscopic evaluation of internal organs: Left kidney (internal organs [3]; mouse #5, 15 mg/kg bw): Consistency softer than normal
Macroscopic evaluation of internal organs: Liver (internal organs [3]; mouse #5, 15 mg/kg bw): consistency softer than normal, blood vessels; also recorded: Liver surface colour dark cherry to brown,
Macroscopic evaluation of internal organs: Lung (internal organs [3]; mouse #5, 15 mg/kg bw): No visible changes
Macroscopic evaluation of internal organs: Pancreas (internal organs [3]; mouse #5, 15 mg/kg bw): No visible changes
Macroscopic evaluation of internal organs: Reproductive organs (internal organs [3]; mouse #5, 15 mg/kg bw): No visible changes
Macroscopic evaluation of internal organs: Right kidney (internal organs [3]; mouse #5, 15 mg/kg bw): Consistency softer than normal
Macroscopic evaluation of internal organs: Spleen (internal organs [3]; mouse #5, 15 mg/kg bw): 1.6 cm × 0.4 cm × 0.1 cm in size, and slightly smaller, dark brown in colour
Macroscopic evaluation of internal organs: Stomach (internal organs [3]; mouse #5, 15 mg/kg bw): No visible changes
Macroscopic evaluation of internal organs: Thymus (internal organs [3]; mouse #5, 15 mg/kg bw): No visible changes
External appearance of the mouse: skin thick (internal organs [3]; mouse #5, EPI/OVCAR3 group, 15 mg/kg bw): 0.21 mm
External appearance of the mouse (internal organs [3]; mouse #5, EPI/OVCAR3 group, 15 mg/kg bw, 15 mg/kg): Anal area dirty with faeces, mouse; also recorded: cachectic
average decrease of body weight [4]: 22.55%
Appearance of the organ: Tumour (internal organs [5]): anaplastic lesions, moderate tumour necrosis
Appearance of the organ: Liver (internal organs [5]; 10 mg/kg): Hyperaemia, features of hepatocyte; also recorded: feathery degeneration, focal necrosis
Appearance of the organ: Reproductive organs (internal organs [5]; 10 mg/kg): Severe lesions, endometrial hypertrophy,; also recorded: cystic lesions, the growth of Leydig cells
Average viability (HeLa cell line; [6]): 98.38%
Average viability (HeLa cell line; [7]): 3.6%
Average viability (HeLa cell line; [8]): 14.93%
Average viability (HeLa cell line; [9]): 4.21%
Average viability (HeLa cell line; [10]): 100.18%
Average viability (HeLa cell line; [11]): 7.96%
viability at 24 h, 125000 ng/ml NPs (pure drug equimolar) [2]: 12.7%
viability at 24 h, 25000 ng/ml NPs (pure drug equimolar) [2]: 72.8%
viability at 24 h, 50000 ng/ml NPs (pure drug equimolar) [2]: 17%
death or survival of the mice during treatment (mice): resulted in the death of the mice
